From patent US20190183798A1, “METHOD FOR TREATING TUMOR” (Johnpro Biotech Inc., priority 2016, published 2019)

Legend:
[1] = test system: HepG2 cells; test: Absorption/retention of lipo-dox in HepG2 cells under specified treatments (flow cytometry, confocal microscopy); conditions: 37° C., 42° C. and mEHT treatments compared
[2] = test system: HepG2 cells; test: Absorption of dextran, CT-B or transferrin in HepG2 cells under specified treatments (flow cytometry), with or without wortmannin; assay type: cell-based
Description: In the treatment of wortmannin, an inhibitor of macropinocytosis pathway, the HepG2 cells were treated with phosphate-buffered saline (PBS) or wortmannin at 37° C. for 15 minutes. After the administration of dextran, the cells were applied with 37° C. treatment, 42° C. treatment or mEHT treatment for 1 hour.
The cells were analyzed by flow cytometry.

## COc1cccc2c1C(=O)c1c(O)c3c(c(O)c1C2=O)C[C@@](O)(C(=O)CO)C[C@@H]3O[C@H]1C[C@H](N)[C@H](O)[C@H](C)O1 [dox, doxorubicin]
[1]
  Enhancement of the absorption of dox without liposome encapsulation: no obvious difference among the tested treatments

## CT-B: particle about 100 nm used as tested drug for endocytosis uptake
[2]; all treatment groups (37° C., 42° C. and mEHT), 2 μg/ml CT-B
  Absorption of CT-B by the cell compared with control group: enhanced absorption

## dextran
[2]; all treatment groups (37° C., 42° C. and mEHT), 1 mg/ml dextran
  Absorption of dextran to the cells compared with control group: enhanced absorption
[2]; mEHT treatment versus 37° C. and 42° C. treatments
  Fluorescence signal of dextran in cells treated with mEHT: highest fluorescence signals

## transferrin
[2]; all treatment groups (37° C., 42° C. and mEHT), 5 μg/ml transferrin
  Absorption of transferrin by the cell compared with control group: enhanced absorption
